This note sets out measurements from patent publication US8623859B2, “Bradykinin B1 antagonists” (Evotec AG, priority 2008, dated 2014).

Counter-ions that a name gives are not always drawn.

The assay deals with T1, human B1 (Homo sapiens, UniProt P46663).
T1 construct: host or cells: CHO-K1
T1 sequence (P46663 1-353): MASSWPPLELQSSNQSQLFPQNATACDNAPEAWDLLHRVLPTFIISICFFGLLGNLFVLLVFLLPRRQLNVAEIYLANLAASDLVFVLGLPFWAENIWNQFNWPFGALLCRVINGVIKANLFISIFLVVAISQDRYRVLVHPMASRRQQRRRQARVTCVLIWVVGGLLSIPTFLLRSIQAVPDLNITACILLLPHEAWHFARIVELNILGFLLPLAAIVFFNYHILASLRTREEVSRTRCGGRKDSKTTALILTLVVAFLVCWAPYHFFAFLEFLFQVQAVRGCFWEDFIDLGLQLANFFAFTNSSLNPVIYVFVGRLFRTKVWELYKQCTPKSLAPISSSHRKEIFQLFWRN
In words: Calcium flux assay for Bradykinin B1 antagonist, CHO-K1 cell line expressing human B1. In kind it is cell-based. The following applies: CHO-K1 cells expressing human B1, agonist Lys-(Des-Arg)-Bradykinin, read-out: Potency (IC50 value against human B1). An outline of the steps:
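Inhibition of B1 agonist-evoked intracellular Ca2+ rise was followed by continuous fluorescence at 538 nm, with integrated, background-normalized signals plotted versus log compound concentration. Test compounds (eight 10-fold dilutions, triplicate, 1% DMSO final) were added 30 min at 25° C beforehand to Fluo-4AM-loaded human B1 CHO-K1 cells in pH 7.4 assay buffer.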
(In general: Calcium flux is commonly read through the fluorescence of an indicator in the cells.)

`COc1cc(C)c(S(=O)(=O)N(Cc2nc(C(=O)N3CCN(Cc4ccc(OC)nc4)CC3)co2)C2CC2)c(C)c1` [Ex 235, N-Cyclopropyl-4-methoxy-N-{[4-({4-[(6-methoxypyridin-3-yl)methyl]piperazin-1-yl}carbonyl)-1,3-oxazol-2-yl]methyl}-2,6-dimethylbenzenesulfonamide trifluoroacetate]: the 50% inhibitory concentration (IC50) was < 0.01 µM.
To `COc1cc(C)c(S(=O)(=O)N(Cc2nc(C(=O)N3CCN(Cc4ccc(C(F)(F)F)nc4)CC3)co2)C2CC2)c(C)c1` [Ex 236, N-Cyclopropyl-4-methoxy-2,6-dimethyl-N-({4-[(4-{[6-(trifluoromethyl)pyridin-3-yl]methyl}piperazin-1-yl)carbonyl]-1,3-oxazol-2-yl}methyl)benzenesulfonamide trifluoroacetate] belongs 0.01 to 0.1 µM.
Turning to `COc1cc(C)c(S(=O)(=O)N(Cc2nc(C(=O)N3CCN(Cc4ccc(N5CCCC5)nc4)CC3)co2)C2CC2)c(C)c1` [Ex 237, N-Cyclopropyl-4-methoxy-2,6-dimethyl-N-{[4-({4-[(6-pyrrolidin-1-ylpyridin-3-yl)methyl]piperazin-1-yl}carbonyl)-1,3-oxazol-2-yl]methyl}benzenesulfonamide trifluoroacetate], the IC50 was < 0.01 µM.
On to `COc1cc(C)c(S(=O)(=O)N(Cc2nc(C(=O)N3CCN(CC4CCN(C(=O)OC(C)(C)C)CC4)CC3)co2)C2CC2)c(C)c1` [Ex 238, trifluoroacetate], for which the half-inhibitory concentration (IC50) lay within 0.1 to 1 µM.
Take `COc1cc(C)c(S(=O)(=O)N(Cc2nc(C(=O)N3CCC(C4CCNCC4)CC3)co2)C2CC2)c(C)c1` [Ex 239, N-{[4-(4,4′-Bipiperidin-1-ylcarbonyl)-1,3-oxazol-2-yl]methyl}-N-cyclopropyl-4-methoxy-2,6-dimethylbenzenesulfonamide trifluoroacetate]: the half-inhibitory concentration (IC50) fell in the range of 0.1 to 1 µM.
Take `COc1cc(C)c(S(=O)(=O)N(Cc2nc(C(=O)N3CCC(O)(/C=C/c4cccnc4)CC3)co2)C2CC2)c(C)c1` [Ex 240, N-Cyclopropyl-N-{[4-({4-hydroxy-4-[(E)-2-pyridin-3-ylethenyl]piperidin-1-yl}carbonyl)-1,3-oxazol-2-yl]methyl}-4-methoxy-2,6-dimethylbenzenesulfonamide trifluoroacetate]: the IC50 was 0.01 to 0.1 µM.
As to `COc1cc(C)c(S(=O)(=O)N(Cc2nc(C(=O)N3CCC(O)(/C=C/c4ccncc4)CC3)co2)C2CC2)c(C)c1` [Ex 241, N-Cyclopropyl-N-{[4-({4-hydroxy-4-[(E)-2-pyridin-4-ylethenyl]piperidin-1-yl}carbonyl)-1,3-oxazol-2-yl]methyl}-4-methoxy-2,6-dimethylbenzenesulfonamide trifluoroacetate], the half-maximal inhibitory concentration (IC50) was 0.01 to 0.1 µM.
As for `CCN1CCN(CCCNC(=O)c2coc(CN(C3CC3)S(=O)(=O)c3c(C)cc(OC)cc3C)n2)CC1` [Ex 242, 2-({Cyclopropyl[(4-methoxy-2,6-dimethylphenyl)sulfonyl]amino}methyl)-N-[3-(4-ethylpiperazin-1-yl)propyl]-1,3-oxazole-4-carboxamide trifluoroacetate], the concentration for half-maximal inhibition (IC50) was 0.01 to 0.1 µM.
To `COc1cc(C)c(S(=O)(=O)N(Cc2nc(C(=O)N(C)C3CCC(N4CCN(C)CC4)CC3)co2)C2CC2)c(C)c1` (stereo not shown) [Ex 243, 2-({Cyclopropyl[(4-methoxy-2,6-dimethylphenyl)sulfonyl]amino}methyl)-N-methyl-N-[4-(4-methylpiperazin-1-yl)cyclohexyl]-1,3-oxazole-4-carboxamide trifluoroacetate] belongs 0.01 to 0.1 µM.
For the compound `COc1cc(C)c(S(=O)(=O)N(Cc2nc(C(=O)N(C)C3CCCC(N4CCN(C)CC4)C3)co2)C2CC2)c(C)c1` (stereo not shown) [Ex 244, 2-({Cyclopropyl[(4-methoxy-2,6-dimethylphenyl)sulfonyl]amino}methyl)-N-methyl-N-[3-(4-methylpiperazin-1-yl)cyclohexyl]-1,3-oxazole-4-carboxamide], the IC50 is < 0.01 µM.
Take `COc1cc(C)c(S(=O)(=O)N(Cc2cnc(C(=O)N3CCN(CC4CCN(C)CC4)CC3)o2)C2CC2)c(C)c1` [Ex 245, N-Cyclopropyl-4-methoxy-2,6-dimethyl-N-{[2-({4-[(1-methylpiperidin-4-yl)methyl]piperazin-1-yl}carbonyl)-1,3-oxazol-5-yl]methyl}benzenesulfonamide]: the concentration for half-maximal inhibition (IC50) lay within 0.1 to 1 µM.
With `COc1cc(C)c(S(=O)(=O)N(Cc2nc(C(=O)N3CCC(O)(COCCN(C)C)CC3)co2)C2CC2)c(C)c1` [Ex 246, N-Cyclopropyl-N-({4-[(4-{[2-(dimethylamino)ethoxy]methyl}-4-hydroxypiperidin-1-yl)carbonyl]-1,3-oxazol-2-yl}methyl)-4-methoxy-2,6-dimethylbenzenesulfonamide trifluoroacetate], the IC50 lay within 0.01 to 0.1 µM.
In the case of `COc1cc(C)c(S(=O)(=O)N(Cc2nc(C(=O)N3CCC(OC4CCN(C)C4)CC3)co2)C2CC2)c(C)c1` (stereo not shown) [Ex 247, N-Cyclopropyl-4-methoxy-2,6-dimethyl-N-{[4-({4-[(1-methylpyrrolidin-3-yl)oxy]piperidin-1-yl}carbonyl)-1,3-oxazol-2-yl]methyl}benzenesulfonamide], the IC50 lay in the range of 0.1 to 1 µM.
Take `COc1cc(C)c(S(=O)(=O)N(Cc2nc(C(=O)N3CCC(OC4CCCN(C)C4)CC3)co2)C2CC2)c(C)c1` (stereo not shown) [Ex 248, N-Cyclopropyl-4-methoxy-2,6-dimethyl-N-{[4-({4-[(1-methylpiperidin-3-yl)oxy]piperidin-1-yl}carbonyl)-1,3-oxazol-2-yl]methyl}benzenesulfonamide trifluoroacetate]: the 50% inhibitory concentration (IC50) lay in the range of 0.01 to 0.1 µM.
In the case of `COc1cc(C)c(S(=O)(=O)N(Cc2nc(C(=O)N3CCN(Cc4c[nH]cn4)CC3)co2)C2CC2)c(C)c1` [Ex 249, N-Cyclopropyl-N-[(4-{[4-(1H-imidazol-4-ylmethyl)piperazin-1-yl]carbonyl}-1,3-oxazol-2-yl)methyl]-4-methoxy-2,6-dimethylbenzenesulfonamide], the IC50 fell in the range of 0.01 to 0.1 µM.
On to `COc1cc(C)c(S(=O)(=O)N(Cc2nc(C(=O)N3CCN(Cc4c[nH]c(C)n4)CC3)co2)C2CC2)c(C)c1` [Ex 250, N-Cyclopropyl-4-methoxy-2,6-dimethyl-N-{[4-({4-[(2-methyl-1H-imidazol-4-yl)methyl]piperazin-1-yl}carbonyl)-1,3-oxazol-2-yl]methyl}benzenesulfonamide], for which the IC50 is < 0.01 µM.
Regarding `COc1cc(C)c(S(=O)(=O)N(Cc2nc(C(=O)N3CCN(Cc4cncn4C)CC3)co2)C2CC2)c(C)c1` [Ex 251, N-Cyclopropyl-4-methoxy-2,6-dimethyl-N-{[4-({4-[(1-methyl-1H-imidazol-5-yl)methyl]piperazin-1-yl}carbonyl)-1,3-oxazol-2-yl]methyl}benzenesulfonamide], the IC50 was 0.1 to 1 µM.
Take `COc1cc(C)c(S(=O)(=O)N(Cc2nc(C(=O)N3CCN(Cc4ccnc(C)c4)CC3)co2)C2CC2)c(C)c1` [Ex 252, N-Cyclopropyl-4-methoxy-2,6-dimethyl-N-{[4-({4-[(2-methylpyridin-4-yl)methyl]piperazin-1-yl}carbonyl)-1,3-oxazol-2-yl]methyl}benzenesulfonamide]: the concentration for half-maximal inhibition (IC50) is < 0.01 µM.
In the case of `COc1cc(C)c(S(=O)(=O)N(Cc2nc(C(=O)N3CCN(Cc4cccnc4N)CC3)co2)C2CC2)c(C)c1` [Ex 253, N-{[4-({4-[(2-Aminopyridin-3-yl)methyl]piperazin-1-yl}carbonyl)-1,3-oxazol-2-yl]methyl}-N-cyclopropyl-4-methoxy-2,6-dimethylbenzenesulfonamide] it was < 0.01 µM.

By IC50 is commonly meant the point on the concentration scale where inhibition reaches its midpoint.
